From PubChem BioAssay AID1918998 (Molecular Pharmacology Branch, DTP, NCI, 2023)

Test system: 521955-158-R2-J5-PDC complex spheroid growth
Experiment: Anticancer human tumor 521955-158-R2-J5-PDC patient-derived pancreatic carcinoma cell line growth inhibition [AhR]
Settings: for IC50: curve of first compound; for viability, T/C: stronger effect = lower value
Outline: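 Agents were dosed in half-log steps down from roughly clinical Cmax, or from 10 microM where Cmax was unknown, alone and with AhR antagonists. Read-out: percent test/control growth of tumor spheroids containing HUVEC and MSC stromal cells.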

[1] = second compound 0.1 µM, first compound 0.0316 µM
[2] = second compound 0.1 µM, first compound 0.1 µM
[3] = second compound 0.316 µM, first compound 0.0316 µM
[4] = second compound 0.316 µM, first compound 0.1 µM
[5] = second compound 1 µM, first compound 0.0316 µM
[6] = second compound 1 µM, first compound 0.1 µM
[7] = second compound 3.16 µM, first compound 0.0316 µM
[8] = second compound 3.16 µM, first compound 0.1 µM
[9] = second compound 10 µM, first compound 0.0316 µM
[10] = second compound 10 µM, first compound 0.1 µM
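Wherever viability, T/C is given: spheroids mix tumor cells with HUVEC endothelium and human MSC stroma; luminescence taken as viability surrogate after a week of drug exposure.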

With COc1cc(Nc2ncc3c(n2)-c2ccc(Cl)cc2C(c2c(F)cccc2OC)=NC3)ccc1C(=O)O + Cc1ccccc1N=Nc1ccc(NC(=O)c2ccnn2C)c(C)c1 the IC50 (second compound 0.1 µM) was > 10000 nM, the IC50 (second compound 0.316 µM) was > 10000 nM and the IC50 (second compound 1 µM) was > 10000 nM. For the same molecule, the IC50 (second compound 3.16 µM) was > 10000 nM, the IC50 (second compound 10 µM) was > 10000 nM and the viability, T/C [1] was 81.3%. It also gave a viability, T/C [2] of 76%, a viability, T/C (second compound 0.1 µM, first compound 0.316 µM) of 69.8% and a viability, T/C (second compound 0.1 µM, first compound 1 µM) of 68.1%. For the same molecule, the viability, T/C (second compound 0.1 µM, first compound 3.16 µM) was 63.8%, the viability, T/C (second compound 0.1 µM, first compound 10 µM) was 48.5% and the viability, T/C [3] was 89.5%. It also gave a viability, T/C [4] of 79.9%, a viability, T/C (second compound 0.316 µM, first compound 0.316 µM) of 72.4% and a viability, T/C (second compound 0.316 µM, first compound 1 µM) of 60.2%. The viability, T/C (second compound 0.316 µM, first compound 3.16 µM) was 71.4%, the viability, T/C (second compound 0.316 µM, first compound 10 µM) was 55.4% and the viability, T/C [5] was 109%. It also gave a viability, T/C [6] of 69.8%, a viability, T/C (second compound 1 µM, first compound 0.316 µM) of 74.3% and a viability, T/C (second compound 1 µM, first compound 1 µM) of 58.9%. For the same molecule, the viability, T/C (second compound 1 µM, first compound 3.16 µM) was 62.1%, the viability, T/C (second compound 1 µM, first compound 10 µM) was 53.9% and the viability, T/C [7] was 98.6%. The viability, T/C [8] was 77%, the viability, T/C (second compound 3.16 µM, first compound 0.316 µM) was 68.3% and the viability, T/C (second compound 3.16 µM, first compound 1 µM) was 74.2%. For the same molecule, the viability, T/C (second compound 3.16 µM, first compound 3.16 µM) was 74.7%, the viability, T/C (second compound 3.16 µM, first compound 10 µM) was 71.4% and the viability, T/C [9] was 122%. The viability, T/C [10] was 96.1%, the viability, T/C (second compound 10 µM, first compound 0.316 µM) was 94.6% and the viability, T/C (second compound 10 µM, first compound 1 µM) was 88.5%. For the same molecule, the viability, T/C (second compound 10 µM, first compound 3.16 µM) was 83.4% and the viability, T/C (second compound 10 µM, first compound 10 µM) was 90.7%.
With CC(C)CC(NC(=O)C(Cc1ccccc1)NC(=O)c1cnccn1)B(O)O (stereo not given) + Cc1ccccc1N=Nc1ccc(NC(=O)c2ccnn2C)c(C)c1 the IC50 (second compound 0.1 µM) was 16.1 nM, the IC50 (second compound 0.316 µM) was 16.3 nM and the IC50 (second compound 1 µM) was 17.3 nM. It also gave an IC50 (second compound 3.16 µM) of 15.1 nM, an IC50 (second compound 10 µM) of 8.76 nM and a viability, T/C (second compound 0.1 µM, first compound 0.000949 µM) of 91.3%. For the same molecule, the viability, T/C (second compound 0.1 µM, first compound 0.003 µM) was 77.6%, the viability, T/C (second compound 0.1 µM, first compound 0.00949 µM) was 105% and the viability, T/C (second compound 0.1 µM, first compound 0.03 µM) was 0.49%. The viability, T/C (second compound 0.1 µM, first compound 0.0949 µM) was 0.24%, the viability, T/C (second compound 0.1 µM, first compound 0.3 µM) was 1.83% and the viability, T/C (second compound 0.316 µM, first compound 0.000949 µM) was 95.3%. For the same molecule, the viability, T/C (second compound 0.316 µM, first compound 0.003 µM) was 89.4%, the viability, T/C (second compound 0.316 µM, first compound 0.00949 µM) was 97.4% and the viability, T/C (second compound 0.316 µM, first compound 0.03 µM) was 0.67%. It also gave a viability, T/C (second compound 0.316 µM, first compound 0.0949 µM) of 0.36%, a viability, T/C (second compound 0.316 µM, first compound 0.3 µM) of 0.41% and a viability, T/C (second compound 1 µM, first compound 0.000949 µM) of 127%. It also gave a viability, T/C (second compound 1 µM, first compound 0.003 µM) of 99.8%, a viability, T/C (second compound 1 µM, first compound 0.00949 µM) of 101% and a viability, T/C (second compound 1 µM, first compound 0.03 µM) of 2.56%. It also gave a viability, T/C (second compound 1 µM, first compound 0.0949 µM) of 2.56%, a viability, T/C (second compound 1 µM, first compound 0.3 µM) of 0.41% and a viability, T/C (second compound 3.16 µM, first compound 0.000949 µM) of 146%. It also gave a viability, T/C (second compound 3.16 µM, first compound 0.003 µM) of 119%, a viability, T/C (second compound 3.16 µM, first compound 0.00949 µM) of 82.3% and a viability, T/C (second compound 3.16 µM, first compound 0.03 µM) of 1.3%. The viability, T/C (second compound 3.16 µM, first compound 0.0949 µM) was 0.26%, the viability, T/C (second compound 3.16 µM, first compound 0.3 µM) was 0.34% and the viability, T/C (second compound 10 µM, first compound 0.000949 µM) was 142%. It also gave a viability, T/C (second compound 10 µM, first compound 0.003 µM) of 153%, a viability, T/C (second compound 10 µM, first compound 0.00949 µM) of 42.7% and a viability, T/C (second compound 10 µM, first compound 0.03 µM) of 1.3%. It also gave a viability, T/C (second compound 10 µM, first compound 0.0949 µM) of 3.29% and a viability, T/C (second compound 10 µM, first compound 0.3 µM) of 0.52%.
CC[C@@]1(O)C(=O)OCc2c1cc1n(c2=O)Cc2cc3c(CN(C)C)c(O)ccc3nc2-1 + Cc1ccccc1N=Nc1ccc(NC(=O)c2ccnn2C)c(C)c1 showed an IC50 (second compound 0.1 µM) of 27.2 nM, an IC50 (second compound 0.316 µM) of 17.5 nM and an IC50 (second compound 1 µM) of 26.9 nM. The IC50 (second compound 3.16 µM) was 22.2 nM, the IC50 (second compound 10 µM) was 43.9 nM and the viability, T/C (second compound 0.1 µM, first compound 0.000316 µM) was 76.7%. It also gave a viability, T/C (second compound 0.1 µM, first compound 0.001 µM) of 79.3%, a viability, T/C (second compound 0.1 µM, first compound 0.00316 µM) of 89.5% and a viability, T/C (second compound 0.1 µM, first compound 0.01 µM) of 78.6%. The viability, T/C [1] was 45.7%, the viability, T/C [2] was 23% and the viability, T/C (second compound 0.316 µM, first compound 0.000316 µM) was 92.1%. For the same molecule, the viability, T/C (second compound 0.316 µM, first compound 0.001 µM) was 100%, the viability, T/C (second compound 0.316 µM, first compound 0.00316 µM) was 88.8% and the viability, T/C (second compound 0.316 µM, first compound 0.01 µM) was 64.7%. It also gave a viability, T/C [3] of 34.7%, a viability, T/C [4] of 25.2% and a viability, T/C (second compound 1 µM, first compound 0.000316 µM) of 98.2%. It also gave a viability, T/C (second compound 1 µM, first compound 0.001 µM) of 113%, a viability, T/C (second compound 1 µM, first compound 0.00316 µM) of 114% and a viability, T/C (second compound 1 µM, first compound 0.01 µM) of 87.8%. The viability, T/C [5] was 44.6%, the viability, T/C [6] was 22.9% and the viability, T/C (second compound 3.16 µM, first compound 0.000316 µM) was 119%. It also gave a viability, T/C (second compound 3.16 µM, first compound 0.001 µM) of 131%, a viability, T/C (second compound 3.16 µM, first compound 0.00316 µM) of 122% and a viability, T/C (second compound 3.16 µM, first compound 0.01 µM) of 77.3%. For the same molecule, the viability, T/C [7] was 41.1%, the viability, T/C [8] was 25.6% and the viability, T/C (second compound 10 µM, first compound 0.000316 µM) was 130%. The viability, T/C (second compound 10 µM, first compound 0.001 µM) was 122%, the viability, T/C (second compound 10 µM, first compound 0.00316 µM) was 131% and the viability, T/C (second compound 10 µM, first compound 0.01 µM) was 107%. It also gave a viability, T/C [9] of 59.9% and a viability, T/C [10] of 26.3%.
